Assay: refractive index (other wavelength) (dimensionless); xn = mol fraction of the nth substance listed
Conditions: 94 kPa, Liquid, Wavelength=632.8 nm, minimum deviation method

CCCCCCCC[n+]1ccn(C)c1.F[P-](F)(F)(F)(F)F [1-octyl-3-methylimidazolium hexafluorophosphate] + CC(C)O
Conditions	refractive index
298.19 K, x1 = 1	1.4215
300.2 K, x1 = 1	1.421
302.19 K, x1 = 1	1.4204
304.2 K, x1 = 1	1.4199
306.22 K, x1 = 1	1.4193
307.22 K, x1 = 0.5	1.4091
307.22 K, x1 = 0.8	1.4159
307.28 K, x1 = 0.901	1.4177
307.29 K, x1 = 0.601	1.4119
307.3 K, x1 = 0.4	1.4056
307.3 K, x1 = 0.699	1.4141
307.41 K, x1 = 0.3	1.4009
308.19 K, x1 = 0.699	1.4138
308.21 K, x1 = 0.5	1.4088
308.21 K, x1 = 0.601	1.4116
308.23 K, x1 = 0.901	1.4174
308.24 K, x1 = 1	1.4188
308.25 K, x1 = 0.8	1.4156
308.29 K, x1 = 0.4	1.4053
308.4 K, x1 = 0.3	1.4006
309.22 K, x1 = 0.5	1.4085
309.24 K, x1 = 0.601	1.4113
309.24 K, x1 = 0.8	1.4154
309.25 K, x1 = 0.901	1.4171
309.27 K, x1 = 0.699	1.4135
309.35 K, x1 = 0.4	1.405
309.39 K, x1 = 0.3	1.4003
309.47 K, x1 = 0.2	1.3938
310.24 K, x1 = 0.601	1.411
310.25 K, x1 = 0.5	1.4082
310.25 K, x1 = 0.8	1.4151
310.25 K, x1 = 1	1.4183
310.31 K, x1 = 0.699	1.4132
310.34 K, x1 = 0.901	1.4168
310.36 K, x1 = 0.4	1.4047
310.42 K, x1 = 0.3	1.3999
310.45 K, x1 = 0.2	1.3934
310.49 K, x1 = 0.1	1.3838
311.23 K, x1 = 0.601	1.4107
311.24 K, x1 = 0.5	1.4079
311.25 K, x1 = 0.699	1.413
311.25 K, x1 = 0.901	1.4166
311.26 K, x1 = 0.8	1.4148
311.36 K, x1 = 0.4	1.4044
311.46 K, x1 = 0.3	1.3996
311.48 K, x1 = 0.2	1.3931
311.5 K, x1 = 0.1	1.3834
312.22 K, x1 = 0.8	1.4146
312.24 K, x1 = 0.601	1.4104
312.24 K, x1 = 1	1.4178
312.25 K, x1 = 0.5	1.4076
312.26 K, x1 = 0.699	1.4127
312.35 K, x1 = 0.901	1.4163
312.37 K, x1 = 0.4	1.4041
312.4 K, x1 = 0.3	1.3993
312.47 K, x1 = 0.2	1.3927
312.49 K, x1 = 0.1	1.383
313.21 K, x1 = 0.601	1.4101
313.25 K, x1 = 0.8	1.4143
313.26 K, x1 = 0.5	1.4073
313.26 K, x1 = 0.901	1.416
313.35 K, x1 = 0.4	1.4038
313.37 K, x1 = 0.699	1.4124
313.43 K, x1 = 0.3	1.399
313.49 K, x1 = 0.2	1.3924
313.52 K, x1 = 0.1	1.3826
314.23 K, x1 = 0.601	1.4098
314.23 K, x1 = 0.699	1.4121
314.27 K, x1 = 0.5	1.407
314.29 K, x1 = 0.8	1.414
314.29 K, x1 = 0.901	1.4157
314.39 K, x1 = 0.4	1.4035
314.46 K, x1 = 0.3	1.3986
314.48 K, x1 = 0.2	1.392
314.54 K, x1 = 0.1	1.3822
315.58 K, x1 = 0.1	1.3818
315.58 K, x1 = 0.2	1.3916

From the NIST ThermoML archive (doi:10.1016/j.jct.2016.10.047)
